Results: ChEMBL document CHEMBL5608201, “Discovery and optimization of thiazole-based quorum sensing inhibitors as potent blockers of Pseudomonas aeruginosa pathogenicity” (Eur J Med Chem, 2024)
Values after ≈ are worked out from the molar mass of the structure shown.

What was measured:
[1] = Lipophilicity, log D of the compound; type: physicochemical; settings: octanol/water
[2] = biological target: T1, Transcriptional regulator MvfR (Pseudomonas aeruginosa PA14, UniProt A0A072ZLE6); assay: Inverse agonist activity at Pseudomonas aeruginosa PqsR extracted from Escherichia coli Dh5alpha co-expressing lacZ incubated with test compound in presence of pseudomonas quinolone signal (PQS) by ONPG/heterologous reporter gene assay
T1 sequence (A0A072ZLE6 whole entry): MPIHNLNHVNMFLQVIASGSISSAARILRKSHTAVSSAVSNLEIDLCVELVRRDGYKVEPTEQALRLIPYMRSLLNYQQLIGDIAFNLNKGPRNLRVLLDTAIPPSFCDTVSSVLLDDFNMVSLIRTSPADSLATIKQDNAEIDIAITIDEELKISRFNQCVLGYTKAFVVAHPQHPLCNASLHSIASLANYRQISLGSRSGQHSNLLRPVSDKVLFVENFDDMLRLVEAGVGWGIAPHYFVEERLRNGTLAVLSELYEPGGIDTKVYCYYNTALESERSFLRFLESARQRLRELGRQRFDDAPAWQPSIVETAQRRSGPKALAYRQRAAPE

Pseudomonas aeruginosa = assay: Antivirulence activity against Pseudomonas aeruginosa PA14 assessed as inhibition of pyocyanin biosynthesis incubated for 16 hrs under agitation by photometric analysis; type: functional, organism-based; settings: PA14, 16 h
[3] = Kinetic aqueous solubility of the compound in PBS buffer incubated for 5 mins by turbidimetric aqueous solubility assay; type: physicochemical; settings: read-out: Kinetic_solubility
[4] = Metabolic stability in mouse liver microsomes assessed as half life at 1 uM measured after 30 mins by HPLC-MS/MS analysis; type: ADME, Microsome

## FC(F)(F)c1cc(NCc2csc(-c3ccc(Oc4ccccc4)cc3)n2)ccn1
[1]
  logD: 5.04
[2]
  IC50: 53 nM
Pseudomonas aeruginosa
  IC50: 1400 nM
[3]
  solubility kinetic at 5 min: 18 µM (≈ 7.69 µg/mL)
[4]
  half-life at 1 µM: 18 min

## CC(C)Oc1ccc(-c2ncc(CNc3cc(C#N)nc(C(F)(F)F)c3)s2)cc1Cl
[1]
  logD: 5.01
[2]
  IC50: 19 nM
Pseudomonas aeruginosa
  IC50: 114 nM
[3]
  solubility kinetic at 5 min: 25 µM (≈ 11.3 µg/mL)
[4]
  half-life at 1 µM: 58 min

## Clc1cc(NCc2cnc(-c3ccc(Oc4ccccc4)cc3)s2)ccn1
[1]
  logD: 4.16
[2]
  IC50: 9 nM
Pseudomonas aeruginosa
  IC50: 718 nM
[3]
  solubility kinetic at 5 min: 2 µM (≈ 0.788 µg/mL)
[4]
  half-life at 1 µM: 55 min

## CC(C)Nc1ccc(-c2ncc(CNc3ccnc(C(F)(F)F)c3)s2)cc1
[2]
  IC50: 430 nM
Pseudomonas aeruginosa
  IC50: 500 nM
[3]
  solubility kinetic at 5 min: 39 µM (≈ 15.3 µg/mL)
[4]
  half-life at 1 µM: 7 min

## CC(C)Oc1ccc(-c2ncc(CNc3cc(Cl)nc(C(F)(F)F)c3)s2)cc1
[1]
  logD: 5.4
[2]
  IC50: 8 nM
Pseudomonas aeruginosa
  IC50: 87 nM
[3]
  solubility kinetic at 5 min: 35 µM (≈ 15 µg/mL)
[4]
  half-life at 1 µM: 15 min

## CC(C)Oc1ccc(-c2ncc(CNc3cc(Cl)nc(C(F)(F)F)c3)s2)cc1Cl
[1]
  logD: 5.21
[2]
  IC50: 10 nM
Pseudomonas aeruginosa
  IC50: 109 nM
[3]
  solubility kinetic at 5 min: 7 µM (≈ 3.24 µg/mL)
[4]
  half-life at 1 µM: 28 min

## FC(F)(F)c1cc(NCc2cc(-c3ccc(Oc4ccccc4)cc3)no2)ccn1
[1]
  logD: 5.04
[2]
  IC50: 30 nM
Pseudomonas aeruginosa
  IC50: 338 nM
[3]
  solubility kinetic at 5 min: 8 µM (≈ 3.29 µg/mL)
[4]
  half-life at 1 µM: 36 min

## COc1c(C)cc(-c2ncc(CNc3ccnc(C(F)(F)F)c3)s2)cc1C
[2]
  IC50: > 5 nM
Pseudomonas aeruginosa
  IC50: > 5 nM

## COc1ccc(-c2ncc(CNc3ccnc(C(F)(F)F)c3)s2)cc1Cl
[1]
  logD: 4.84
[2]
  IC50: 40 nM
Pseudomonas aeruginosa
  IC50: 215 nM
[3]
  solubility kinetic at 5 min: 25 µM (≈ 10 µg/mL)
[4]
  half-life at 1 µM: 1 min

## FC(F)(F)c1cc(NCc2nnc(-c3ccc(Oc4ccccc4)cc3)o2)ccn1
[1]
  logD: 4.12
[2]
  IC50: 23 nM
Pseudomonas aeruginosa
  IC50: 406 nM
[3]
  solubility kinetic at 5 min: 46 µM (≈ 19 µg/mL)
[4]
  half-life at 1 µM: 23 min

## FC(F)(F)c1cc(NCc2ncc(-c3ccc(Oc4ccccc4)cc3)s2)ccn1
[1]
  logD: 5.54
[2]
  IC50: 51 nM
Pseudomonas aeruginosa
  IC50: 515 nM
[3]
  solubility kinetic at 5 min: 26 µM (≈ 11.1 µg/mL)
[4]
  half-life at 1 µM: 10 min

## N#Cc1cc(NCc2cnc(-c3ccc(Oc4ccccc4)cc3)s2)ccn1
[1]
  logD: 3.15
[2]
  IC50: 30 nM
Pseudomonas aeruginosa
  IC50: 290 nM
[3]
  solubility kinetic at 5 min: 7 µM (≈ 2.69 µg/mL)
[4]
  half-life at 1 µM: 39 min

## CC(C)Oc1ccc(-c2ncc(CNc3cc(Cl)nc(Cl)c3)s2)cc1
[1]
  logD: 5.62
[2]
  IC50: 29 nM
Pseudomonas aeruginosa
  IC50: 88 nM
[3]
  solubility kinetic at 5 min: 8 µM (≈ 3.15 µg/mL)
[4]
  half-life at 1 µM: 37 min

## FC(F)(F)c1ccc(NCc2cnc(-c3ccc(Oc4ccccc4)cc3)s2)cn1
[1]
  logD: 3.42
[2]
  IC50: 38 nM
Pseudomonas aeruginosa
  IC50: 424 nM
[3]
  solubility kinetic at 5 min: 8 µM (≈ 3.42 µg/mL)
[4]
  half-life at 1 µM: 10 min

## N#Cc1ccc(NCc2cnc(-c3ccc(Oc4ccccc4)cc3)s2)cn1
[1]
  logD: 3.52
[2]
  IC50: 5 nM
Pseudomonas aeruginosa
  IC50: 761 nM
[3]
  solubility kinetic at 5 min: 6 µM (≈ 2.31 µg/mL)
[4]
  half-life at 1 µM: 38 min

## N#Cc1ccc(NCc2cnc(-c3ccc(Oc4ccccc4)cc3)s2)nc1
[2]
  IC50: 803 nM
Pseudomonas aeruginosa
  IC50: > 5000 nM
[3]
  solubility kinetic at 5 min: 5 µM (≈ 1.92 µg/mL)
[4]
  half-life at 1 µM: 20 min

## COc1ccc(-c2ncc(CNc3ccnc(C(F)(F)F)c3)s2)cc1
[2]
  IC50: 83 nM
Pseudomonas aeruginosa
  IC50: 450 nM

## FC(F)(F)c1cc(SCc2cnc(-c3ccc(Oc4ccccc4)cc3)s2)ccn1
[1]
  logD: 4.03
[2]
  IC50: 111 nM
Pseudomonas aeruginosa
  IC50: 2370 nM
[3]
  solubility kinetic at 5 min: 7 µM (≈ 3.11 µg/mL)
[4]
  half-life at 1 µM: 11 min
